Assay results taken from PubChem BioAssay AID1259411 (Chemical Carcinogenesis Research Information System (CCRIS), 2018).
Active and inactive are the calls of the source. No rule for the calls is given here.

Tested on: rodent carcinogenicity bioassays, tumor incidence
Experiment: CCRIS carcinogenicity studies
How it was run: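 Archive of carcinogenicity, mutagenicity, tumor promotion and tumor inhibition results drawn from journals, NCI reports and other sources, expert-reviewed; covers 1985-2011 and is no longer updated.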

Structure (SMILES): Cn1c(=O)c2c(ncn2C)n(C)c1=O
- carcinogen call (Species: RAT, Strain/Sex: SPRAGUE-DAWLEY/FEMALE, Route: ORAL, Dose: 0, 200, 430, 930, 2000 MG/L IN DRINKING WATER FOR 24 MO (STUDY DURATION: 2 YR), Dose: 0, 200, 430, 930, 2000 MG/L IN DRINKING WATER FOR 24 MO (STUDY DURATION: 2 YR)): inactive; negative
- carcinogen call (Species: RAT, Strain/Sex: SPRAGUE-DAWLEY/MALE, Route: ORAL, Dose: 0, 200, 430, 930, 2000 MG/L IN DRINKING WATER FOR 24 MO (STUDY DURATION: 2 YR), Dose: 0, 200, 430, 930, 2000 MG/L IN DRINKING WATER FOR 24 MO (STUDY DURATION: 2 YR)): inactive; negative
- carcinogen call (Species: RAT, Strain/Sex: WISTAR/MALE,FEMALE, Route: ORAL, Dose: 0, 0.1, 0.2% SOLN. IN DRINKING WATER FOR 78 WK, Dose: 0, 0.1, 0.2% SOLN. IN DRINKING WATER FOR 78 WK): inactive; negative

Structure (SMILES): CCCCNN
- carcinogen call (Species: MOUSE, Strain/Sex: SWISS/FEMALE, Route: ORAL, Dose: 0, 0.0125% SOLUTION IN DRINKING WATER DAILY FOR LIFE FOR AN AVERAGE DAILY INTAKE OF 0, 1.3 MG (STUDY DURATION: 130 WK), Dose: 0, 0.0125% SOLUTION IN DRINKING WATER DAILY FOR LIFE FOR AN AVERAGE DAILY INTAKE OF 0, 1.3 MG (STUDY DURATION: 130 WK), Tumor Site: Type of Lesion: LUNG: ADENOMA, LUNG: ADENOMA OR ADENOCARCINOMA): active; positive
- carcinogen call (Species: MOUSE, Strain/Sex: SWISS/MALE, Route: ORAL, Dose: 0, 0.0125% SOLUTION IN DRINKING WATER DAILY FOR LIFE FOR AN AVERAGE DAILY INTAKE OF 0, 2.1 MG (STUDY DURATION: 130 WK), Dose: 0, 0.0125% SOLUTION IN DRINKING WATER DAILY FOR LIFE FOR AN AVERAGE DAILY INTAKE OF 0, 2.1 MG (STUDY DURATION: 130 WK), Tumor Site: Type of Lesion: LUNG: ADENOMA, LUNG: ADENOMA OR ADENOCARCINOMA): active; positive

Structure (SMILES): O[C@@H]1[C@@H]2O[C@@H]2c2c(cc3ccc4cccc5ccc2c3c45)[C@H]1O
- carcinogen call (Species: MOUSE, Strain/Sex: ICR/FEMALE, Route: INTRAPERITONEAL, Dose: 0, 25 NMOL (TOTAL DOSE) ADMINISTERED IN DOSES OF 1/7, 2/7, AND 4/7 ON DAYS 1, 7, AND 15 OF LIFE, RESPECTIVELY (STUDY DUR, Tumor Site: Type of Lesion: LUNG: TUMOR): active; positive
- carcinogen call (Species: MOUSE, Strain/Sex: ICR/FEMALE, Route: INTRAPERITONEAL, Dose: 0;25 NMOL TOTAL DOSE INJECTED IN DOSES OF 1/7 ON DAY 1, 2.7 ON DAY 8, AND 4/7 ON DAY 15 OF LIFE (STUDY DURATION: 35 WK), Tumor Site: Type of Lesion: LUNG: TUMOR): active; positive
- carcinogen call (Species: MOUSE, Strain/Sex: ICR/MALE, Route: INTRAPERITONEAL, Dose: 0, 25 NMOL TOTAL DOSE INJECTED IN DOSES OF 1/7 ON DAY 1, 2/7 ON DAY 8, AND 4/7 ON DAY 15 OF LIFE (STUDY DURATION: 35 WK), Tumor Site: Type of Lesion: LUNG:TUMOR): active; positive
- carcinogen call (Species: MOUSE, Strain/Sex: ICR/MALE, Route: INTRAPERITONEAL, Dose: 0, 25 NMOL (TOTAL DOSE) ADMINISTERED IN DOSES OF 1/7, 2/7, AND 4/7 ON DAYS 1, 7, AND 15 OF LIFE, RESPECTIVELY (STUDY DUR, Tumor Site: Type of Lesion: LUNG: TUMOR): active; positive
- carcinogen call (Species: RAT, Strain/Sex: STRAIN-CD/FEMALE, Route: INJECTION, Dose: 0, 2.04 UMOL IN 0.1 ML DMSO 3 INJECTIONS INTO MAMMARY TISSUE BENEATH THE 3 LEFT THORACIC NIPPLES ON THE NEXT DAY PROCEDU, Tumor Site: Type of Lesion: MAMMARY GLAND: TUMOR): active; positive
- carcinogen call (Species: RAT, Strain/Sex: STRAIN-CD/FEMALE, Route: INJECTION, Dose: 0, 2.04 UMOL IN 0.1 ML DMSO INJECTED BENEATH EACH THE THREE LEFT THORACIC NIPPLES THEN ON THE NEXT DAY BENEATH EACH OF T, Tumor Site: Type of Lesion: MAMMARY GLAND: TUMOR): active; positive

Structure (SMILES): O=[N+]([O-])c1ccc(Nc2ccc(Nc3ccccc3)c(S(=O)(=O)O)c2)c([N+](=O)[O-])c1
- carcinogen call (Species: MOUSE, Strain/Sex: B6C3F1/FEMALE, Route: GAVAGE, Dose: 0, 250, 500 MG/KG IN CORN OIL 5D/WK FOR 103 WK (STUDY DURATION: 104 WK), Dose: 0, 250, 500 MG/KG IN CORN OIL 5D/WK FOR 103 WK (STUDY DURATION: 104 WK)): inactive; negative
- carcinogen call (Species: MOUSE, Strain/Sex: B6C3F1/MALE, Route: GAVAGE, Dose: 0, 125, 250 MG/KG IN CORN OIL 5D/WK FOR 103 WK (STUDY DURATION: 104 WK), Dose: 0, 125, 250 MG/KG IN CORN OIL 5D/WK FOR 103 WK (STUDY DURATION: 104 WK)): inactive; negative
- carcinogen call (Species: RAT, Strain/Sex: F344/FEMALE, Route: GAVAGE, Dose: 0, 375, 750 MG/KG IN CORN OIL 5D/WK FOR 103 WK (STUDY DURATION: 105 WK), Dose: 0, 375, 750 MG/KG IN CORN OIL 5D/WK FOR 103 WK (STUDY DURATION: 105 WK), Tumor Site: Type of Lesion: KIDNEY: TRANSITIONAL CELL CARCINOMA): active; positive
- carcinogen call (Species: RAT, Strain/Sex: F344/MALE, Route: GAVAGE, Dose: 0, 375 MG/KG IN CORN OIL 5D/WK FOR 103 WK (STUDY DURATION: 104 WK)): inactive; negative

Structure (SMILES): O=C1NC(=O)C(=O)C(=O)N1
- carcinogen call (Species: Rat, Strain/Sex: WBN/Kob (Diabetic)/Female (17/group), Route: Intravenous, Dose: 0, 40 mg/kg once, study duration 75 wks, Tumor Site: Type of Lesion: Forestomach: squamous cell carcinoma): active; positive
- carcinogen call (Species: Rat, Strain/Sex: WBN/Kob (Diabetic)/Male (31/ group), Route: Intravenous, Dose: 0, 50 mg/kg once, study duration 75 wks, Tumor Site: Type of Lesion: Forestomach: squamous cell carcinoma): active; positive

Structure (SMILES): c1ccc2occc2c1
- carcinogen call (Species: MOUSE, Strain/Sex: B6C3F1/FEMALE, Route: GAVAGE, Dose: 0, 120, 240 MG/KG IN CORN OIL 5 D/WK FOR 103 WK (STUDY DURATION: 104 WK), Dose: 0, 120, 240 MG/KG IN CORN OIL 5 D/WK FOR 103 WK (STUDY DURATION: 104 WK), Tumor Site: Type of Lesion: LUNG: ALVEOLAR/BRONCHIOLAR ADENOMA, ALVEOLAR/BRONCHIOLAR CARCINOMA, LIVER: HEPATOCELLULAR ADENOMA, HEPATOCELLULAR ADENOM): active; positive
- carcinogen call (Species: MOUSE, Strain/Sex: B6C3F1/MALE, Route: GAVAGE, Dose: 0, 60, 120 MG/KG IN CORN OIL 5 D/WK FOR 103 WK (STUDY DURATION: 104 WK), Dose: 0, 60, 120 MG/KG IN CORN OIL 5 D/WK FOR 103 WK (STUDY DURATION: 104 WK), Tumor Site: Type of Lesion: LUNG: ALVEOLAR/BRONCHIOLAR ADENOMA, ALVEOLAR/BRONCHIOLAR ADENOMA OR CARCINOMA, LIVER: HEPATOCELLULAR ADENOMA, HEPATOCELL): active; positive
- carcinogen call (Species: RAT, Strain/Sex: F344/FEMALE, Route: GAVAGE, Dose: 0, 60, 120 MG/KG IN CORN OIL 5 D/WK FOR 103 WK (STUDY DURATION: 104 WK), Dose: 0, 60, 120 MG/KG IN CORN OIL 5 D/WK FOR 103 WK (STUDY DURATION: 104 WK), Tumor Site: Type of Lesion: KIDNEY: TUBULAR CELL ADENOCARCINOMA): active; positive
- carcinogen call (Species: RAT, Strain/Sex: F344/MALE, Route: GAVAGE, Dose: 0, 30, 60 MG/KG IN CORN OIL 5 D/WK FOR 103 WK (STUDY DURATION: 104 WK), Dose: 0, 30, 60 MG/KG IN CORN OIL 5 D/WK FOR 103 WK (STUDY DURATION: 104 WK)): inactive; negative

Structure (SMILES): O=S(=O)(O)c1ccc(N=Nc2c(O)ccc3cc(S(=O)(=O)O)ccc23)cc1
- carcinogen call (Species: MOUSE, Strain/Sex: B6C3F1/FEMALE, Route: ORAL, Dose: 0, 12500, 25000 PPM IN DIET, Dose: 0, 12500, 25000 PPM IN DIET): inactive; negative
- carcinogen call (Species: MOUSE, Strain/Sex: B6C3F1/MALE, Route: ORAL, Dose: 0, 12500, 25000 PPM IN DIET, Dose: 0, 12500, 25000 PPM IN DIET): inactive; negative
- carcinogen call (Species: MOUSE, Strain/Sex: SWISS-WEBSTER/FEMALE, Route: DERMAL, Dose: 0, 1% IN 0.1 ML DISTILLED WATER 1/WK FOR 19.5 MO (STUDY DURATION: 19.5 MO)): inactive; negative
- carcinogen call (Species: MOUSE, Strain/Sex: SWISS-WEBSTER/MALE, Route: DERMAL, Dose: 0, 1% IN 0.1 ML DISTILLED WATER 1/WK FOR 19.5 MO (STUDY DURATION: 19.5 MO)): inactive; negative
- carcinogen call (Species: RAT, Strain/Sex: F344/FEMALE, Route: ORAL, Dose: 0, 12500, 25000 PPM IN DIET, Dose: 0, 12500, 25000 PPM IN DIET): inactive; negative
- carcinogen call (Species: RAT, Strain/Sex: F344/MALE, Route: ORAL, Dose: 0, 12500, 25000 PPM IN DIET, Dose: 0, 12500, 25000 PPM IN DIET): inactive; negative
